# Laboratory results as given in patent US9669016B2, “Antiparasitic effect of Bis[3,5-Bis(Benzylidene)-4-Oxo-1-Piperidinyl]amide Derivatives” (priority 2014, dated 2017).
# Where two headings read alike, the source gives them in different places.
# What was measured:
# [1] = system: T. cruzi intracellular amastigotes; assay: High-content imaging infectivity assay, T. cruzi amastigote-infected human osteoblasts; assay type: cell-based, Trypanosoma cruzi; conditions: for IC50: Trypanosoma cruzi, Osteoblast; for parasite burden / percentage of infected cells, T. cruzi infected mammalian cells: human osteoblasts, 48 h
# Method: Human osteoblasts were infected with T. cruzi trypomastigotes and were treated with each compound at multiple concentrations for 48 hours.
# In vitro evaluation of the NC drug library on infectivity experiments by high-content imaging assay. Mice intraperitoneal macrophages and human osteoblasts were placed in a microplate and infected with the amastigote forms of L. major strain Friedlin clone V1 and T. cruzi Y strain respectably, followed by treatment with NC lead compounds (as shown in Table 1). Briefly, Image acquisition and analyses of the plates were carried out using the BD Pathway 855 high-resolution fluorescence bioimager system (BD Biosciences). Filter sets appropriate for the excitation and emission spectra of Draq5 were utilized. Images from […] (3×3 montage) were acquired per well with a 20× objective. To perform the host cell segmentation and counting of parasites, the BD AttoVision™ v1.6.2 Sub Object analysis was used. Draq5 creates a background, staining the host cell and parasite nucleus, but defining the cytoplasm as well, determining this way the amount of parasites within each mammalian cell. The host cell nucleus was excluded by size difference. Subsequently, the infection index was calculated based on the mean of these triplicate values by multiplying the percentage of infected cells and the constraints used in the HCIA assay that was of 2, 3, 5, and 8 parasites per cell.
# L. major promastigotes = assay: Mitoprobe JC-1 mitochondrial membrane potential assay; assay type: cell-based, Leishmania major; conditions: three concentrations, four hours
# Method: L. major promastigotes and intraperitoneal macrophages from BALB/c mice were treated with each compound at three concentrations for four hours. Then, cells were stained with 2 μM of the fluorophore 5,5′,6,6′-tetrachloro-1,1′,3,3′-tetraethylbenzimidazolylcarboncyanine iodide (JC-1) following a modified version of manufacturer's instruction (Life Technologies, Grand Island, N.Y.). The disruption of mitochondrial Δψm is evidenced by an appreciable shift of the fluorescence signal from red to green. JC-1 aggregates or monomers, emitting red or green signal, were identified via flow cytometer (Cytomics Fc500) by using FL-2 or FL-1 detectors, respectively. A proton ionophore that dissipates the mitochondrial Δψm carbonyl cyanide 3-chlorophenylhydrazone (CCCP) at 50 μM, was used as a positive control. Cells treated with the diluent of the compounds (DMSO) and untreated were used as negative controls. Data collection and analysis was performed by using CXP software (Beckman Coulter). JC-1 is the most widely applied method for detecting mitochondrial depolarization occurring in the early stages of apoptosis.
# [2] = molecular target: trypanothione reductase (TR) from T. cruzi (Trypanosoma cruzi, UniProt P28593); assay: Trypanothione reductase inhibition; assay type: biochemical; conditions: preliminary, unpublished data
# [3] = molecular target: lipoamide dehydrogenase (LipDH) also from T. cruzi (Trypanosoma cruzi, UniProt P90597); assay: Lipoamide dehydrogenase inhibition; assay type: biochemical; conditions: preliminary, unpublished data
# [4] = Weight and toxicity monitoring in treated infected mice; assay type: in vivo, BALB/c mice; conditions: for deaths as a result of compound toxicity / weight loss: 10^5 infection experiment; for weight loss: daily IP treatment
# Method: The in vivo experiments were comprised of four groups of five mice each: (1) infected, but not treated [control for the infection—100 μL of DMSO per day, drug diluent]; (2) treated with NC884, NC901 or NC2459, but not infected with the parasites [control for drug toxicity]; (3) infected with the parasites and treated with amphotericin B (8 mg/kg/day) [reference drug; positive control]; and (4) infected with the parasites and treated with NC884, NC901 or NC2459 [experimental group]. Luciferase expressing metacyclic promastigotes L. major (Freidlin V1) were obtained as described previously. Suspensions of 1×10^5 or 1×10^6 parasites per 50 μl of sterile DMEM (endotoxin-free) were injected with a 30G needle into the left hind footpad of BALB/c mice. Two weeks post-infection the compounds were administered once a day by intraperitoneal route, daily for 14 to 17 days. Twice a week, weights were recorded to monitor toxicity and the thickness of the infected footpad and the non-infected footpad was measured with digital calipers to monitor the progression of the disease. The parasitic load also was evaluated through in vivo imaging using luminescence (Kodak Image Station). The mice were injected intra-peritoneally with 150 mg/kg D-luciferin (Sigma, USA) 10 min before imaging, anesthetized with 1-2% isofluorane in oxygen during imaging and the net intensity emitted from the footpad was quantified using the KODAK Image Station software. Parasite burden was expressed as net intensity emitted from L. major infected footpad lesions normalized against the background fluorescence of uninfected mice. The presence/absence of parasites was confirmed by PCR using L. major methionine aminopeptidase (MetAP1) 1 specific primers: 5′-[…]-3′ (SEQ ID NO:1) and 5′-[…]-3′ (SEQ ID NO:2) on cDNA reverse transcribed from total RNA extracted from footpad lysate obtained by macerating footpad tissue fragments in Trizol (Invitrogen Life Technologies, United States) with the gentleMACS™ Dissociator (Miltenyi Biotec GmbH, Germany) following the manufacturer's protocol.
# [5] = in human osteoblasts, 48 h treatment, read-out: T. cruzi Intracellular Amastigotes IC50
# lipoamide dehydrogenase (LipDH) also from T. cruzi, sequence (P90597 whole entry): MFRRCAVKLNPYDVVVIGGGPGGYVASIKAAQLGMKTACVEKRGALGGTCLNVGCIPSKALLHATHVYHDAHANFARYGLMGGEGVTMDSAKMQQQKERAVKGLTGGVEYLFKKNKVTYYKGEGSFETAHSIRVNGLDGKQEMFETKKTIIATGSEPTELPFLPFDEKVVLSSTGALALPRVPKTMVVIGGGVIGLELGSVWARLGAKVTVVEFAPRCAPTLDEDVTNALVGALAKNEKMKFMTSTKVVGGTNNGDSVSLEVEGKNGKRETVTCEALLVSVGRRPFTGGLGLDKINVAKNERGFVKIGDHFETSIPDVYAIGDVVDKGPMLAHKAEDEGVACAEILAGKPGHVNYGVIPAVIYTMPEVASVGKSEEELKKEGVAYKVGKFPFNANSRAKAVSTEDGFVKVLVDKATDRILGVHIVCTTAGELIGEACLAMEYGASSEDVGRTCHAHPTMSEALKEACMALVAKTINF
# trypanothione reductase (TR) from T. cruzi, sequence (P28593 whole entry): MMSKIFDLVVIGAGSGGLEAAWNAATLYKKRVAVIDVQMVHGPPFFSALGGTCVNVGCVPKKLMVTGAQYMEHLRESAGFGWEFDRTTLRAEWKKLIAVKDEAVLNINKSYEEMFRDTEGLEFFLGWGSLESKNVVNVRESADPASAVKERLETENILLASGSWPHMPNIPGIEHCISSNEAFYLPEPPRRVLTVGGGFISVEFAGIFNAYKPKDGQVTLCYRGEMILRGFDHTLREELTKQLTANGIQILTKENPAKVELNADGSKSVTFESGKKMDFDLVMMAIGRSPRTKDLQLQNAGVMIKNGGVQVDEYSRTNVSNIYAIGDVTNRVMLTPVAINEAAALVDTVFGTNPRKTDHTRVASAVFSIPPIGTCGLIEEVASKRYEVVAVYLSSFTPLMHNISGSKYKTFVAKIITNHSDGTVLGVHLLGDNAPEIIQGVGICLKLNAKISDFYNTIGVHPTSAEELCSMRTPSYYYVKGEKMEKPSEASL
Compound,"IC50 [1, 5] [nM]","parasite burden / percentage of infected cells, T. cruzi infected mammalian cells ([1]; 3 or more amastigotes per cell)",mitochondrial membrane potential (Δψm) vs 1% DMSO (L. major promastigotes),inhibition of trypanothione reductase [2],inhibition of lipoamide dehydrogenase [3],deaths as a result of compound toxicity [4],weight loss [4],"IC50 ([1]; 48 hours, 3 or more amastigotes per cell, read-out: IC50, T. cruzi amastigote-infected human osteoblasts) [nM]","additional weight loss or toxic side effects compared to the control group ([4]; 10^6 infection, 8 mg/kg/day extended treatment)"
CN(C)CC1CCC(CN(C)C)C1=O (stereo not drawn) [NC884],987 ± 110,significantly reduced the parasite burden,concentration dependent loss in Δψm,time-dependent irreversible inhibition,time-dependent irreversible inhibition,no mice died,no significant weight loss,–,–
CN(C)CC1CCCC(CN(C)C)C1=O (stereo not drawn) [NC901],301 ± 90,significantly reduced the parasite burden,concentration dependent loss in Δψm,time-dependent irreversible inhibition,time-dependent irreversible inhibition,no mice died,no significant weight loss,–,–
O=C1/C(=C/c2ccccc2)CN(C(=O)C(=O)N2C/C(=C\c3ccccc3)C(=O)/C(=C/c3ccccc3)C2)C/C1=C\c1ccccc1 [NC2459],227 ± 40,significantly reduced the parasite burden,concentration dependent loss in Δψm,–,–,no mice died,no significant weight loss,227,did not result in any additional weight loss or toxic side effects
